The results in this text go back to ChEMBL document CHEMBL6134907, “Synthesis of 5,9- and 5,8-Diaminoalkoxy Substituted Benzophenanthridinone Analogues as Tyrosyl-DNA Phosphodiesterase 1 Inhibitors and Their Radiosensitizing Activity” (J Med Chem, 2025).

Active and inactive are the calls of the source. The rule behind the calls is not given here. A value given as a limit tells only on which side of the number the result lay.

Data set [1] deals with HCT-116. Put plainly: Radiosensitizing activity in human HCT-116 cells assessed as induction of 2 GY ionizing radiation (IR) induced cell killing effect. The data set is classed as functional, cell-based.
Another data set has as its system RKO. Put plainly: Synergistic cytotoxicity against human RKO cells assessed as combination index at 5 uM incubated for 48 hrs in presence of 2GY ionizing radiation (IR). In kind it is functional.
Another data set deals with A549. Put plainly: Radiosensitizing activity in human A549 cells assessed as sensitization of 2 GY ionizing radiation induced decrease in cell survival by colony formation assay. In kind it is functional, cell-based.
Data set [2] concerns HCT-116. Put plainly: In vivo radiosensitizing activity in human HCT-116 cells xenografted in BALB/c mouse assessed as sensitization of 1 GY ionizing radiation induced tumor growth inhibition at 1 mg/kg, ip every day for 14 days radiated for every 2 days once. The data set is classed as functional, organism-based. The settings on record: time 14.0 day.
Data set [3] can be described thus: Toxicity in BALB/c mouse xenografted with human HCT-116 cells assessed as change in spleen weight at 1 to 10 mg/kg, ip every day for 14 days. The data set is classed as organism-based. As to conditions: in vivo, 336 h, dose 1-10 mg/kg, time 14 day.
In data set [4] the test system is Tyrosyl-DNA phosphodiesterase 1/Deoxyribonucleic acid. The data set can be described thus: Stabilization of TDP1/DNA complex in human HCT-116 cells at 100 uM ionizing radiation with 4 GY by Cellular Thermal Shift Assay (CETSA). In kind it is cell-based.
For data set [5], the system named is HCT-116. The data set can be described thus: Induction of ionizing radiation (IR) induced gamma-H2AX level in human HCT-116 cells at 5 uM measured after 3 hrs by Western blot analysis. In kind it is functional, cell-based.
In data set [6] the test system is HCT-116. The data set can be described thus: Effect on ROS generation in human HCT-116 cells assessed as increase in intracellular ROS level at 5 to 10 uM measured after 20 mins by ELIASA analysis. In kind it is functional, cell-based. As to conditions: dose 5-10 µM.

In the case of `COc1cc2c(=O)n(CCN(C)C)c3c4cc5c(cc4ccc3c2cc1OCCN1CCOCC1)OCO5`, the result with HCT-116 [1] and with HCT-116 [5] was Active. Besides, the CI with RKO is less than 0.3. Besides, the outcome in the data set on A549 and in the data set with HCT-116 [6] was inactive. Further, in the data set on HCT-116 [2], the TGI result was “Active”. The Activity result was “Non-toxic” in data set [3] and “Active; Coincubation With Ionizing Radiation Showed Greater Complex Formation” in data set [4].
